Measurements: ChEMBL document CHEMBL1201862, “PubChem BioAssay data set” (2004)
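Each compound was tested at five concentrations against cells in 96-well plates for 48 hours. GI50 marks 50% less growth.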 Active and inactive are the calls of the source. No stated cut-off is given here; in the data, active = GI50 up to about 1.1 µM and inactive = higher.

Tests used:
Assay in all cases: NCI-60 cell line screen, 48 h
CCRF-CEM = tested on: CCRF-CEM
NCI-H23 = tested on: NCI-H23
KM12 = tested on: KM12
NCI-H522 = tested on: NCI-H522
COLO 205 = tested on: COLO 205
ACHN = tested on: ACHN
UACC-257 = tested on: UACC-257
SNB-19 = tested on: SNB-19
M14 = tested on: M14
SK-MEL-5 = tested on: SK-MEL-5
MOLT-4 = tested on: MOLT-4
SNB-75 = tested on: SNB-75
EKVX = tested on: EKVX
MCF7 = tested on: MCF7
SF-295 = tested on: SF-295
UACC-62 = tested on: UACC-62
HCC 2998 = tested on: HCC 2998
NCI/ADR-RES = tested on: NCI/ADR-RES
HOP-62 = tested on: HOP-62
HOP-92 = tested on: HOP-92

| Compound | GI50 (CCRF-CEM) | GI50 (NCI-H23) | GI50 (KM12) | GI50 (NCI-H522) | GI50 (COLO 205) | GI50 (ACHN) | GI50 (UACC-257) | GI50 (SNB-19) | GI50 (M14) | GI50 (SK-MEL-5) | GI50 (MOLT-4) | GI50 (SNB-75) | GI50 (EKVX) | GI50 (MCF7) | GI50 (SF-295) | GI50 (UACC-62) | GI50 (HCC 2998) | GI50 (NCI/ADR-RES) | GI50 (HOP-62) | GI50 (HOP-92) |
| --- | --- | --- | --- | --- | --- | --- | --- | --- | --- | --- | --- | --- | --- | --- | --- | --- | --- | --- | --- | --- |
| COc1ccc(C(=O)Cn2c(C(C)=O)nc3ccccc32)cc1 | 5.93 µM (inactive) | 13.2 µM (inactive) | 7.1 µM (inactive) | 3.86 µM (inactive) | 18.3 µM (inactive) | 8.59 µM (inactive) | 30.4 µM (inactive) | > 34.1 µM (inactive) | 17.5 µM (inactive) | 4.15 µM (inactive) | 4.98 µM (inactive) | > 100 µM (inactive) | 76.9 µM (inactive) | 4.58 µM (inactive) | 13.1 µM (inactive) | 6.89 µM (inactive) | 29.9 µM (inactive) | 3.55 µM (inactive) | 12.1 µM (inactive) | 12.7 µM (inactive) |
| O=[N+]([O-])c1cc(-c2nc(-c3ccccc3)c(-c3ccccc3)[nH]2)c(O)c([N+](=O)[O-])c1 | 25.9 µM (inactive) | 16.9 µM (inactive) | 24.9 µM (inactive) | 20.2 µM (inactive) | 21.8 µM (inactive) | 21.6 µM (inactive) | 24.2 µM (inactive) | 36.9 µM (inactive) | 21.1 µM (inactive) | 17.7 µM (inactive) | 22.8 µM (inactive) | 23 µM (inactive) | 23.4 µM (inactive) | 24.7 µM (inactive) | 22.3 µM (inactive) | 17.5 µM (inactive) | 16.6 µM (inactive) | 19.1 µM (inactive) | 20.4 µM (inactive) | 19.8 µM (inactive) |
| C[n+]1c(Cl)cn2c3nc4ccccc4nc3c([O-])c(C#N)c21 | 77.3 µM (inactive) | > 100 µM (inactive) | > 10 µM (inactive) | > 10 µM (inactive) | > 100 µM (inactive) | 99.1 µM (inactive) | > 100 µM (inactive) | > 100 µM (inactive) | > 100 µM (inactive) | > 4.65 µM (inactive) | > 100 µM (inactive) | > 54.6 µM (inactive) | > 100 µM (inactive) | 18.1 µM (inactive) | > 100 µM (inactive) | > 92.7 µM (inactive) | > 10 µM (inactive) | > 100 µM (inactive) | > 10 µM (inactive) | > 100 µM (inactive) |
| CC(C)C(NCc1c(O)ccc2c(-c3ccccc3)cc(=O)oc12)C(=O)O (stereo not given) | > 100 µM (inactive) | > 100 µM (inactive) | > 100 µM (inactive) | > 100 µM (inactive) | > 100 µM (inactive) | > 100 µM (inactive) | > 100 µM (inactive) | > 100 µM (inactive) | > 100 µM (inactive) | > 100 µM (inactive) | > 100 µM (inactive) | 83.9 µM (inactive) | > 100 µM (inactive) | > 100 µM (inactive) | > 100 µM (inactive) | > 100 µM (inactive) | > 100 µM (inactive) | > 100 µM (inactive) | > 100 µM (inactive) | > 100 µM (inactive) |
| CCOC(=O)N/N=C/C1=NN(C(=O)OCC)[S+]([O-])C1C (stereo not given) | > 100 µM (inactive) | > 100 µM (inactive) | > 100 µM (inactive) | > 100 µM (inactive) | > 100 µM (inactive) | > 100 µM (inactive) | > 100 µM (inactive) | > 100 µM (inactive) | > 100 µM (inactive) | > 100 µM (inactive) | > 100 µM (inactive) | > 100 µM (inactive) | > 100 µM (inactive) | > 100 µM (inactive) | > 100 µM (inactive) | > 100 µM (inactive) | > 100 µM (inactive) | > 100 µM (inactive) | > 100 µM (inactive) | > 100 µM (inactive) |
| CC(C)=CCCC(C)C1=C(O)C(=O)C(C)=CC1=O (stereo not given) | 0.614 µM (active) | 16.7 µM (inactive) | 18.3 µM (inactive) | 2.1 µM (inactive) | 5.75 µM (inactive) | 1.88 µM (inactive) | 9.12 µM (inactive) | 38.1 µM (inactive) | 17.2 µM (inactive) | 11.6 µM (inactive) | 1.8 µM (inactive) | 18.4 µM (inactive) | 5.94 µM (inactive) | 5.74 µM (inactive) | 34 µM (inactive) | 13.4 µM (inactive) | 12.8 µM (inactive) | 12.2 µM (inactive) | 18.9 µM (inactive) | 1.73 µM (inactive) |
| Clc1ccc(Cl)c(/N=N\c2cc3c4c(c2)CCN4CCC3)c1 | > 10 µM (inactive) | > 10 µM (inactive) | > 10 µM (inactive) | > 10 µM (inactive) | > 10 µM (inactive) | > 10 µM (inactive) | > 10 µM (inactive) | > 10 µM (inactive) | > 10 µM (inactive) | > 10 µM (inactive) | > 10 µM (inactive) | > 10 µM (inactive) | > 10 µM (inactive) | > 10 µM (inactive) | > 10 µM (inactive) | > 10 µM (inactive) | > 10 µM (inactive) | > 10 µM (inactive) | > 10 µM (inactive) | > 10 µM (inactive) |
